Measured values as given in patent publication US8815919B2, “Oxadiazole derivatives” (Merck Serono SA, priority 2009, dated 2014).
Structures can show the parent of a compound that is named as a salt. Where two headings read alike, the source gives them in different places.

Assays:
[1] = target: S1P3 (Homo sapiens, UniProt Q99500); experiment: Receptor binding assay, [33P]sphingosine 1-phosphate competition, S1P3 membranes, WGA SPA beads
Experimental: (§1) Membranes were prepared from CHO cells expressing S1P1 or S1P3 for use in ligand and […] binding studies. Cells were suspended in 50 mM TRIS, pH 7.4, 2 mM EDTA, 250 mM Sucrose (buffer A) and 1× Complete protease inhibitor cocktail (Roche), and disrupted at 4° C. by N2 decompression using a cell disruption bomb (Parr Instrument). Following centrifugation at 1000 RPM for 10 min at 4° C., the supernatant was diluted (2×) in buffer A and centrifuged again at 19000 RPM for 75 min at 4° C. The pellet was then suspended in 10 mM HEPES, pH 7.4, 1 mM EDTA, 250 mM Sucrose (Buffer B), and 1× Complete EDTA-free protease inhibitor cocktail and homogenized using a potter. Membranes were flash frozen in liquid N2 and stored at −80° C.
(§2) Receptor binding assay: [33P]sphingosine 1-phosphate (3000 Ci/mmol; American Radiolabeled Chemicals, Inc.) was added to test compounds in 20% DMSO by competition. Membranes and WGA SPA beads (GE Healthcare) were added to give a final volume of 100 μl in 96-well plates or 50 μl in 384-well plates with assay concentrations of […] [33P]sphingosine 1-phosphate (respectively for S1P1 or S1P3), 50 mM HEPES, pH 7.5, 5 mM MgCl2, 100 mM NaCl, 0.4% fatty acid-free BSA, 1-5 μg/well of proteins in 96-well plates vs 0.6-1 μg/well of proteins in 384-well plates and 100 μg/well of WGA SPA beads in 96-well plates vs 75 μg/well of WGA SPA beads in 384-well plates. Binding was performed for 60 min at RT on a shaker and bound radioactivity was measured on a PerkinElmer 1450 MicroBeta counter. Triplicate samples were averaged and normalized as percentage of inhibition relative to total binding (only DMSO in well) and nonspecific binding (1000-fold excess of unlabeled S1P). Binding data were analyzed using the GraphPad Prism program or Genedata software.

[2] = target: T1, S1P1 (Homo sapiens, UniProt P21453); experiment: Receptor binding assay, [33P]sphingosine 1-phosphate competition, S1P1 membranes, WGA SPA beads
Experimental: as §1, §2
Target sequence in this assay (P21453 whole entry, species assumed): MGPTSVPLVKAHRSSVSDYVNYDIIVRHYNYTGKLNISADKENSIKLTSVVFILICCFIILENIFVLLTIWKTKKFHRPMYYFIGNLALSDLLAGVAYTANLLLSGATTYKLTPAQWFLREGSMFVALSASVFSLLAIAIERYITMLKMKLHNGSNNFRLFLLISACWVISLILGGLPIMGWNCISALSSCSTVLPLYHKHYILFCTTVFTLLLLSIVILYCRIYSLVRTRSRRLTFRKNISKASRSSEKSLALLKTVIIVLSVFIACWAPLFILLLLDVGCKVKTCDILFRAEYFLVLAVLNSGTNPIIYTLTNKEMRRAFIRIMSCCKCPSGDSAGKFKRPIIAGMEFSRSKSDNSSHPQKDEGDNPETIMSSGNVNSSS

[3] = target: T1, S1P1; experiment: S1P1 internalization assay in S1P1-U2OS cells (S1P1-EGFP), cell imaging; assay type: cell-based; design: host or cells: U2OS (human bone osteosarcoma epithelial cells), CMV promoter, geneticin selection; conditions: 1 hour incubation
Experimental: Cellular functional assays: Internalization of Sphingosine-1-phosphate receptor 1 (S1P1) in a human Cell line (U2OS) in a 384-well format using a Cell Imaging analysis. • Jo, E.; Sanna, M. G.; Gonzalez-Cabrera, P. J.; Thangada, S.; Tigyi, S.; Osborne, D. A.; Hla, T.; Parrill, A. L.; Rosen, H. Chem. Biol. 2005, 12, 703
The S1P1 internalization assay was performed in 384 well plates (Corning® 384 black with clear bottom 3712) using S1P1-U2OS cells from Biolmage (C039A), a human epithelial cell line (Human Bone Osteosarcoma Epithelial Cells). These cells expressed the human S1P1 Receptor fused to the green fluorescent protein (EGFP). A standard CMV promoter (cytomegalovirus promoter) controls the expression of S1P1-EGFP and continuous expression was maintained by addition of geneticin to the culture medium.
S1P1 Receptor desensitization induced the internalization of the membrane-localized S1P1-EGFP fusion protein to endosomes, which can be monitored by cell imaging analysis. The cells are plated in low serum medium (Dulbecco's Modified Eagle Medium (DMEM) with Glutamax-1 and high glucose, 1% Penicillin/Streptomycin, 1% Fetal Calf Serum (FCS), 0.5 mg/ml Geneticin) overnight.
The next day, S1P1-U2OS cells are incubated in 20 μl serum free medium (DMEM with Glutamax-1 and high glucose, 0.1% of fatty-acid free Bovin Serum Albumin (BSA), 10 mM, N′-2-Hydroxyethylpiperazine-N′-2 ethanesulphonic acid (HEPES) 1M) for 2 hours at 37° C./5% CO2. The cells are then treated with 4 μl compounds/agonists (6×/3% DMSO) for a total volume of 24 μl, and plates are incubated for 1 hour at 37° C./5% CO2.
S1P1-U2OS cells are fixed with 25 μl Paraformaldehyde 8% and stained with Hoechst 33345 dye (1:1000) for 20 minutes.
They were then washed 3 times with Phosphate Buffered Saline (PBS) and plates are sealed. The internalization of the receptor S1P1-EGFP is measured on Cellomics by calculating the “spot count per object” (“object” corresponds to nuclear and “spot” corresponds to S1P1-EGFP receptor). Internalization data were observed thanks to vHCS View and analyzed using Genedata® software.
Target sequence in this assay (P21453 whole entry): as the sequence (P21453 whole entry, species assumed) above

[4] = 96 well-plate, read-out: S1P3 binding Ki (M) (96 well-plate)
[5] = 96 well-plate, read-out: S1P1 binding Ki (M) (96 well-plate)
[6] = 384 well-plate, read-out: S1P3 binding Ki (M) (384 well-plate)
[7] = 384 well-plate, read-out: S1P1 binding Ki (M) (384 well-plate)

Sequence of S1P3 (Q99500 whole entry, species assumed): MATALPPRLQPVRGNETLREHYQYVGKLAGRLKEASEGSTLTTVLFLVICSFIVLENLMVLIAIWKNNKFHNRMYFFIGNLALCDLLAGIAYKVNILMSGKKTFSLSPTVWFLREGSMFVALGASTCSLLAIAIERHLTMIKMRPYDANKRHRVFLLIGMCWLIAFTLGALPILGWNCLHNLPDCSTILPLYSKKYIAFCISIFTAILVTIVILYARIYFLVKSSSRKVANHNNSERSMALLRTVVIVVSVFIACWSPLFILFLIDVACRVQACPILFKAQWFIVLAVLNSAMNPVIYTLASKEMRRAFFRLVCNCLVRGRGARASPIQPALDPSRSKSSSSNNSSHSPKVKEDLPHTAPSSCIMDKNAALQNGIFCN

Compound | Ki [1, 4] [M] | Ki [2, 5] [M] | EC50 [3] [nM] | Ki [1, 6] [M] | Ki [2, 7] [M]
COCc1cc(-c2nc(-c3ccc(OCCO)c(F)c3)no2)ccc1-c1ccccc1C [Example 28, 2-(2-fluoro-4-{5-[2-(methoxymethyl)-2′-methylbiphenyl-4-yl]-1,2,4-oxadiazol-3-yl}phenoxy)ethanol] | 2.14e-07 | 8.88e-10 | 11.9 | – | –
COCc1cc(-c2nc(-c3cccc(CN(C)CC(=O)O)c3)no2)ccc1N1CCCCC1 [Example 29] | – | 1.47e-10 | 7.33 | 2.38e-07 | –
CCOc1cc(-c2nc(-c3cccc(CN(C)CC(=O)O)c3)no2)ccc1-c1ccccc1C [Example 30, N-{3-[5-(2-ethoxy-2′-methylbiphenyl-4-yl)-1,2,4-oxadiazol-3-yl]benzyl}-N-methylglycine, hydrochloride salt] | 3e-08 | 2.01e-10 | 8.92 | – | –
COCc1cc(-c2nc(-c3cccc(CN(C)CC(=O)O)c3)no2)ccc1-c1ccccc1 [Example 33] | 6.24e-08 | 1.83e-10 | 6.96 | – | –
COCc1cc(-c2nc(-c3cccc(CN(C)CC(=O)O)c3)no2)ccc1N1CCCC1C (centres unmarked) [Example 34, N-(3-{5-[3-(methoxymethyl)-4-(2-methylpyrrolidin-1-yl)phenyl]-1,2,4-oxadiazol-3-yl}benzyl)-N-methylglycine] | 3.03e-07 | 1.18e-10 | 13.5 | – | –
COCc1cc(-c2nc(-c3cccc(CN(C)CC(=O)O)c3)no2)ccc1-c1cccc(F)c1C [Example 35, N-(3-{5-[3′-fluoro-2-(methoxymethyl)-2′-methylbiphenyl-4-yl]-1,2,4-oxadiazol-3-yl}benzyl)-N-methylglycine, hydrochloride salt] | 9.4e-08 | 1.98e-10 | 5.88 | – | –
COCc1cc(-c2nc(-c3cccc(CN(C)CC(=O)O)c3)no2)ccc1-c1ccc(F)cc1C [Example 36, N-(3-{5-[4′-fluoro-2-(methoxymethyl)-2′-methylbiphenyl-4-yl]-1,2,4-oxadiazol-3-yl}benzyl)-N-methylglycine, hydrochloride salt] | – | 5.59e-10 | 14.8 | 2.71e-07 | 1.97e-09
COCc1cc(-c2nc(-c3cccc(CN(C)CC(=O)O)c3)no2)ccc1-c1cc(F)ccc1C [Example 37, N-(3-{5-[5′-fluoro-2-(methoxymethyl)-2′-methylbiphenyl-4-yl]-1,2,4-oxadiazol-3-yl}benzyl)-N-methylglycine, hydrochloride salt] | 6.34e-08 | 3.33e-10 | 6.56 | – | –
CC1CCCCN1c1ccc(-c2nc(-c3cccc(COCC(=O)O)c3)no2)cc1C(F)(F)F (centres unmarked) [Example 38, [(3-{5-[4-(2-methylpiperidin-1-yl)-3-(trifluoromethyl)phenyl]-1,2,4-oxadiazol-3-yl}benzyl)oxy]acetic acid, hydrochloride salt] | 6.74e-07 | 6.22e-10 | 15.4 | – | –
COCc1cc(-c2nc(-c3cccc(CN(C)CC(O)CO)c3)no2)ccc1-c1ccccc1C (centres unmarked) [Example 39, 3-[(3-{5-[2-(methoxymethyl)-2′-methylbiphenyl-4-yl]-1,2,4-oxadiazol-3-yl}benzyl)(methyl)amino]propane-1,2-diol] | 8.48e-07 | 3.71e-10 | 13.5 | 1.18e-06 | 2.08e-09
COCc1cc(-c2nc(-c3cccc(CN(CCO)CCO)c3)no2)ccc1-c1ccccc1C [Example 40, 2,2′-[(3-{5-[2-(methoxymethyl)-2′-methylbiphenyl-4-yl]-1,2,4-oxadiazol-3-yl}benzyl)imino]diethanol] | 5.35e-07 | 4.52e-10 | 18.2 | 9.69e-07 | –
COCc1cc(-c2nc(-c3cccc(CC(=O)NCCN(C)C)c3)no2)ccc1-c1ccccc1C [Example 41, N-[2-(dimethylamino)ethyl]-2-(3-{5-[2-(methoxymethyl)-2′-methylbiphenyl-4-yl]-1,2,4-oxadiazol-3-yl}phenyl)acetamide] | – | 1.27e-09 | 76.9 | 4.3e-06 | 8.34e-09
COCc1cc(-c2nc(-c3cccc(CN(C)CC(=O)O)c3)no2)ccc1-c1ccc(F)c(F)c1C [Example 42, N-(3-{5-[3′,4′-difluoro-2-(methoxymethyl)-2′-methylbiphenyl-4-yl]-1,2,4-oxadiazol-3-yl}benzyl)-N-methylglycine, hydrochloride salt] | – | 1.82e-10 | 18.3 | 2.75e-07 | 1.7e-09
COCc1cc(-c2nc(-c3cccc(CC(=O)NCCC(=O)O)c3)no2)ccc1-c1ccccc1C [Example 43, N-[(3-{5-[2-(methoxymethyl)-2′-methylbiphenyl-4-yl]-1,2,4-oxadiazol-3-yl}phenyl)acetyl]-beta-alanine] | – | 2.16e-09 | 34.5 | 2e-07 | 6.6e-09
COCc1cc(-c2nc(-c3cccc(CC(=O)N(C)CC(=O)O)c3)no2)ccc1-c1ccccc1C [Example 44, N-[(3-{5-[2-(methoxymethyl)-2′-methylbiphenyl-4-yl]-1,2,4-oxadiazol-3-yl}phenyl)acetyl]-N-methylglycine] | – | 1.71e-09 | 115 | 1.31e-07 | 1.02e-08
C[C@@H]1CCCCN1c1ccc(-c2nc(-c3cccc(CN(C)CC(=O)O)c3)no2)cc1C(F)(F)F [Example 45, N-methyl-N-(3-{5-[4-[(2R)-2-methylpiperidin-1-yl]-3-(trifluoromethyl)phenyl]-1,2,4-oxadiazol-3-yl}benzyl)glycine, hydrochloride salt] | 1.82e-07 | 5.2e-10 | 12.1 | – | –
C[C@H]1CCCCN1c1ccc(-c2nc(-c3cccc(CN(C)CC(=O)O)c3)no2)cc1C(F)(F)F [Example 46, N-methyl-N-(3-{5-[4-[(2S)-2-methylpiperidin-1-yl]-3-(trifluoromethyl)phenyl]-1,2,4-oxadiazol-3-yl}benzyl)glycine, hydrochloride salt] | 1.31e-07 | 1.07e-10 | 5.19 | – | –
COCc1cc(-c2nc(-c3cc(F)c(C(=O)NCCC(=O)O)cc3F)no2)ccc1-c1ccccc1C [Example 47, N-(2,5-difluoro-4-{5-[2-(methoxymethyl)-2′-methylbiphenyl-4-yl]-1,2,4-oxadiazol-3-yl}benzoyl)-beta-alanine] | 4.03e-07 | 8.5e-10 | 20.2 | 5.2e-07 | –
COCc1cc(-c2nc(-c3cccc(CCN(C)CC(=O)OC(C)(C)C)c3)no2)ccc1-c1ccccc1C [Example 75] | – | 3.04e-09 | 195 | – | –
Cc1cc(-c2nc(-c3ccc(CN(C)CC(=O)O)cc3)no2)ccc1-c1ccccc1C(F)F [Example 137, N-(4-{5-[2′-(difluoromethyl)-2-methylbiphenyl-4-yl]-1,2,4-oxadiazol-3-yl}benzyl)-N-methylglycine, hydrochloride salt] | – | 8.55e-10 | 28.9 | – | 2.37e-09
